Results from US11583502B2, “Pharmaceutical compositions comprising a thyroid hormone beta agonist, method of use and method making thereof” (GANNEX PHARMA CO., LTD., priority 2020, dated 2023).

Key:
[1] = type: physicochemical; details: 3.5 hours
[2] = Solubility of the compound of Formula (I) in media without surfactant; type: physicochemical
Description: The compound of Formula (I), however, is a lipophilic drug that is highly insoluble in water. […] The very low solubility limits its use in research and development as a drug candidate.
For drugs with poor solubility, in vitro dissolution evaluation is a simple and effective method for predicting and comparing dissolution in vivo. In vitro dissolution evaluation is also an important criterion for screening prescription drugs for quality control. […] Therefore, in order to completely dissolve the compound in a conventional 900 ml medium for a 10 mg/unit dose formulation, it is necessary to increase the solubility of the compound to at least 11.11 μg/ml. It would be difficult to achieve such a target with conventional solubilization technology.

For `Cc1cc(OC[P@@]2(=O)OCC[C@@H](c3cccc(Cl)c3)O2)cc(C)c1Cc1ccc(O)c(C(C)C)c1` [compound of Formula (I)], which “drug undergoing degradation reactions” value [1] is on record?
The value was 10.2%.

And the solubility ([2]; aqueous buffer, hydrochloric acid solution, buffer, and water without surfactant at 37° C. and pH 1.0˜9.0)?
Its solubility is < 0.5 ng/mL.

What about the solubility ([2]; medium containing no surfactant) of the same compound?
The solubility was < 0.5 ng/mL.
